Holding throughout (type): in vivo, mouse
The subject of series [1] is female C57BL/6 mice. The experiment in a line: Open-field exploration (OFE): locomotor activity and anxiety (thigmotaxis). The method, then: Seven-week-old female C57BL/6 mice were purchased from Charles River (Wilmington, Mass., USA) and allowed to habituate to the facility for 7 days, followed by 3 days of handling before the start of the experiment. Mice were randomly assigned into groups, with all groups represented in each cage. […]
Behavioral experiments were adapted from a published protocol (35). Data were analyzed blinded to the experimental conditions. […]
For the OFE task, each mouse was allowed to explore the arena for 10 min. The camera footage was then analyzed using ToxTrac, a published program for the total distance moved and time spent in the peripheral versus the central areas (36). For the DOR task, pairs of 50-mL tubes filled with corn cob bedding were taped cap-down to pre-determined positions in the arena. […] The camera footage was then analyzed for bouts of interactions with the tubes. […] Casual touching of the tubes in passing, or leaning onto the tubes to look around were not counted. The preference index for the displaced object was calculated as 100*(time spent with displaced object)/(total time spent with both displaced and familiar objects). The preference index for the familiar object was similarly calculated. […]

In series [2] the test system is female C57BL/6 mice. Nature of the series: Displaced object recognition (DOR) task in paclitaxel-induced model of cognitive impairment. The following applies: for preference for the displaced object (DOR task): saline and paclitaxel 4×20 mg/kg, 20 mg/kg. The method, then:
(§1) Seven-week-old female C57BL/6 mice were purchased from Charles River (Wilmington, Mass., USA) and allowed to habituate to the facility for 7 days, followed by 3 days of handling before the start of the experiment. Mice were randomly assigned into groups, with all groups represented in each cage. Depending on the treatment group, lithium chloride (Sigma-Aldrich, 12.8 mg/kg in 0.9% saline), chelerythrine chloride (Cayman Chemical, 2 mg/kg in 0.4% DMSO in saline), or the appropriate vehicle was administered intraperitoneally 1 h before injection of vehicle (20% 50:50 Cremophor EL: ethanol, 80% saline) or paclitaxel (Cayman Chemical, 20 mg/kg in 20% 50:50 Cremophor EL: ethanol, 80% saline) to induce cognitive impairment. Each mouse received a total of 4 pairs of injections over 8 days. During and after injections, mice were weighed daily and checked for general health and any sign of pain or distress.
Behavioral experiments were adapted from a published protocol (35). Data were analyzed blinded to the experimental conditions. Open-field exploration (OFE) and displaced object recognition (DOR) tasks were carried out over two consecutive days (FIG. 4.1). The experimental arena was a 35×70×35 cm opaque, white Plexiglas chamber. The arena was covered with ˜1 cm of standard corn cob bedding. […]
For the OFE task, each mouse was allowed to explore the arena for 10 min. The camera footage was then analyzed using ToxTrac, a published program for the total distance moved and time spent in the peripheral versus the central areas (36). For the DOR task, pairs of 50-mL tubes filled with corn cob bedding were taped cap-down to pre-determined positions in the arena. […] The camera footage was then analyzed for bouts of interactions with the tubes. […] Casual touching of the tubes in passing, or leaning onto the tubes to look around were not counted. The preference index for the displaced object was calculated as 100*(time spent with displaced object)/(total time spent with both displaced and familiar objects). The preference index for the familiar object was similarly calculated.

Series [3] relates to layers 2/3 cortical pyramidal neurons. The experiment in a line: Golgi-Cox staining and Sholl analysis of cortical neurons. The method, then:
(§2) Golgi-Cox staining solutions were prepared in advance, according to a published protocol (37). For tissue collection, each mouse was first anesthetized for ˜30 s with […] isoflurane, and then quickly decapitated with scissors. The skull was opened, and the brain was extracted and washed briefly in ice-cold 1× phosphate-buffered saline solution (PBS, AmericanBio). A razor blade was then used to dissect the brain into two hemispheres along the medial longitudinal fissure. One hemisphere was immediately dropped into a 25-mL scintillation vial containing 10 mL of impregnation stock solution. The other hemisphere was rapidly dissected into the cerebellum, hippocampus, frontal cortex, and midbrain, snap-frozen in liquid nitrogen, and then subsequently stored at −80° C. until further use.
Golgi-Cox staining was performed according to a published protocol (37). Briefly, the samples were impregnated with a potassium dichromate and mercuric chloride solution at room temperature for 7 days, followed by immersion in a cryoprotection solution for 4 days, and then sectioned into […] frontal slices with a vibratome. The Golgi Atlas of the Postnatal Mouse Brain was used as the reference to identify the section position of the slices (38). Slices corresponding to frontal sections 10 and 11 in the atlas were selected for imaging the hippocampus and the parietal cortex. Slices corresponding to frontal sections 4 and 5 were selected for imaging the prefrontal cortex. The selected slices were mounted on 0.3% gelatin-coated slides, developed and dehydrated through a series of increasing alcohol concentrations, then with xylene, and finally mounted in Eukitt solution (Sigma Aldrich) for imaging. Z-stack images of different regions, including the dentate gyrus and the frontal cortex, were collected using a Zeiss LSM 710 Duo microscope with 20× and 60× objectives. […] Spines were imaged from basal dendritic branches at least […] away, and apical dendritic branches at least […] away from the cell soma. Scholl analysis, total dendritic length, number of branch points, and spine density were performed with ImageJ using the Simple Neurite Tracer plugin (39). Spine density was quantified as the number of protrusions on dendritic branches per μm dendrite length

In another series the test system is pMARCKS (S152/156). Nature of the series: Western blot of brain tissue for pMARCKS. The following applies: cortex, 24 h after paclitaxel injection. The method, then:
as §2
(§3) Frozen tissues were thawed in RIPA buffer containing protease inhibitor, phenylmethylsulfonyl fluoride (PMSF), and sodium orthovanadate (Santa Cruz), homogenized with a polytron, and then spun down twice at 13000 rpm, 4° C. to remove cell debris. Protein concentration was quantified using Pierce BCA protein assay kit (ThermoFisher Scientific) according to the manufacturer's instruction. Western blots were performed using the NuPAGE system (ThermoFisher Scientific) and PVDF membrane with the Biorad wet transfer system (Bio-Rad Laboratories). Approximately 20 μg total protein was loaded into each lane. […]
For orientation: In western blotting, separated proteins are transferred to a membrane and probed.

For series [4], the system named is granule cells in the dentate gyrus of the hippocampus. The experiment in a line: Golgi-Cox staining and Sholl analysis of hippocampal neurons. The following applies: 30 DPI. The method, then:
as §2
Golgi-Cox staining was performed according to a published protocol (37). Briefly, the samples were impregnated with a potassium dichromate and mercuric chloride solution at room temperature for 7 days, followed by immersion in a cryoprotection solution for 4 days, and then sectioned into […] frontal slices with a vibratome. The Golgi Atlas of the Postnatal Mouse Brain was used as the reference to identify the section position of the slices (38). […] Spine density was quantified as the number of protrusions on dendritic branches per μm dendrite length

Series [5] is described as follows: Body weight during and after paclitaxel injections. As for the experimental part:
as §1

For the next series, the system named is PKCα. The experiment in a line: Western blot of brain tissue for PKCα. As for the experimental part:
as §2
Frozen tissues were thawed in RIPA buffer containing protease inhibitor, phenylmethylsulfonyl fluoride (PMSF), and sodium orthovanadate (Santa Cruz), homogenized with a polytron, and then spun down twice at 13000 rpm, 4° C. to remove cell debris. Protein concentration was quantified using Pierce BCA protein assay kit (ThermoFisher Scientific) according to the manufacturer's instruction. Western blots were performed using the NuPAGE system (ThermoFisher Scientific) and PVDF membrane with the Biorad wet transfer system (Bio-Rad Laboratories). Approximately 20 μg total protein was loaded into each lane. Information about the antibodies used is included in Supp.

Series [6] concerns InsP3R1, NCS1, phospholipase C (PLC-β1). Nature of the series: Western blot of brain tissue for other InsP3R pathway proteins. The following applies: 30 DPI, paclitaxel. The method, then: as §2, §3
Setting [7] is: medial prefrontal cortex, comparison among 4 groups.
The mark [8] stands for this setting: saline/paclitaxel vs the other three groups.

Entries after “also recorded” stand apart in the source; their conditions may differ.

Take `COc1ccc2c(c[n+](C)c3c4cc5c(cc4ccc23)OCO5)c1OC` [chelerythrine, chelerythrine chloride]: in the series on female C57BL/6 mice [1] (chelerythrine groups vs other groups, 4 DPI and 22 DPI), the “locomotor activity and anxiety (total distance moved, thigmotaxis)” value was “no differences”.
On to `CC(=O)O[C@H]1C(=O)[C@@]2(C)[C@H]([C@H](OC(=O)c3ccccc3)[C@]3(O)C[C@H](OC(=O)[C@H](O)[C@@H](NC(=O)c4ccccc4)c4ccccc4)C(C)=C1C3(C)C)[C@]1(OC(C)=O)CO[C@@H]1C[C@@H]2O` [paclitaxel], for which the DOR task performance result with female C57BL/6 mice [2] (4×20 mg/kg paclitaxel, after optimization, time not stated) is on record as “sufficient to impair DOR task performance without additional side effects”. The “preference for the displaced object (DOR task)” value is listed as “no discrimination between the two objects; also recorded: did not discriminate between the objects; also recorded: impaired short-term spatial memory acquisition; also recorded: no preference for either object” with female C57BL/6 mice [2] (5 DPI) and “did not discriminate between the objects; also recorded: impaired short-term spatial memory acquisition; also recorded: persisted up to 23 DPI” in the series with female C57BL/6 mice [2] (23 DPI). In addition, the total dendritic length entry in series [3] (frontal cortex, saline and paclitaxel vs other groups, 30 DPI) is reported as “significant reduction”; in series [4] (saline and paclitaxel vs other groups), “significant reduction”. Further, the “dendritic complexity (Sholl analysis)” value in series [3] (frontal cortex, saline and paclitaxel, 30 DPI) is recorded as “significant reduction in dendritic complexity”; in series [4] (saline and paclitaxel vs saline/vehicle, particularly 20-90 μm from the soma), “reduced dendritic arborization; also recorded: substantial reduction in dendritic complexity”. The “basal dendrites: complexity (Sholl analysis)” value in series [3] (setting [7]) was “no significant differences; also recorded: largely spared; also recorded: not observed in basal dendrites”. Besides, in series [3] (setting [7]), the basal dendritic length entry is on record as “no significant differences”. The basal spine density entry in series [3] (setting [7]) is recorded as “no significant differences”. The “apical dendrites: dendritic arborization (Sholl analysis)” value in series [3] (saline/paclitaxel vs saline/vehicle, particularly 110-230 μm) is recorded as “reduced dendritic arborization; also recorded: primarily due to differences in apical dendrites”. Besides, the apical dendritic length entry in series [3] (setting [8]) is recorded as “significant reduction”. In addition, the apical spine density entry in series [3] (setting [8]) was “significant reduction”. The “pMARCKS (S152/156) level” value with pMARCKS (S152/156) is “trend towards increased pMARCKS”. In addition, the body weight loss in series [5] (after 2 paclitaxel injections, normalized to first day of injection (FIG. S1)) is recorded as 5-10%; in series [5] (during injections, normalized to first day of injection (FIG. S3)), “approximately 5%”. Further, the “weight loss, comparison among groups” value in series [5] (over the injection duration) is “No significant differences; also recorded: No significant weight loss”. Moreover, the PKCα protein level entry in the series with PKCα (cortex, 30 DPI (chronic), 4×20 mg/kg paclitaxel) is given as “upregulation”; with PKCα (cortex, 24 h after a single 20 mg/kg paclitaxel injection (acute)) it was “upregulation”; in the series with PKCα (hippocampus, 24 h after a single 20 mg/kg paclitaxel injection (acute)), “upregulation”. Also, in series [6], the “levels of other InsP3R pathway proteins (InsP3R1, NCS1, PLC-β1)” value was “No changes”. Also, the “locomotor activity and anxiety (total distance, thigmotaxis)” value in the series with female C57BL/6 mice [1] (mouse, in vivo, 20 mg/kg) is on record as “neither impaired locomotor activity nor caused increased anxiety”.
